US8445522B2, “Substituted 2-(4-pyridyl)benzoxazoles, and compositions thereof, for use in arthropod pest control” (Sumitomo Chemical Company, Limited, priority 2009, dated 2013)

Key:
Format in all cases: in vivo
rice brown planthopper [1] = experiment: Test Example 6: plant foot irrigation of rice plant seedling, rice brown planthopper released after seven days; conditions: Nilaparvata lugens, 144 h; 500 ppm, 5 ml plant foot irrigation of rice seedling; first-instars released after seven days, counted six days after; read-out: Control value
Description: The formulations were diluted with water so that the concentration of the active ingredient became 500 ppm and thus test diluents were prepared. On the other hand, a plant foot of rice plant seedling (two weeks after seeding, second leaf development stage) planted in a plastic cup was irrigated with any one of diluents (5 ml). The seedling was kept in a green house of 25° C. for seven days. Thirty first-instars of rice brown planthopper were released to the seedling, which was kept in the green house at 25 C for six days. Thereafter, the number of survived rice brown planthopper parasitic on rice plant leaves was counted, and the control value was calculated by the following equation. Control value(%)={1−(Cb×Tai)/(Cai×Tb)}×100 wherein each character represents the following meaning: Cb: number of insects in non-treated section before treatment Cai: number of insects in non-treated section during observation Tb: number of insects in treated section before treatment Tai: number of insects in treated section during observation

cotton aphids [2] = experiment: Test Example 3: plant foot irrigation of cucumber seedling in plastic cup, cotton aphids inoculated after seven days; conditions: 144 h; 500 ppm, 5 ml plant foot irrigation, plastic cup; aphids inoculated after seven days at 25° C., counted six days after; read-out: Control value
Description: (§1) The formulations were diluted with water so that the concentration of the active ingredient became 500 ppm and thus test diluents were prepared. On the other hand, a plant foot of cucumber seedling (second true leaf development stage) planted in a plastic cup was irrigated with any one of diluents (5 ml). The seedling was kept in a green house of 25° C. for seven days. The cucumber leaves were inoculated with 30 cotton aphids (all stages) and kept in the green house for further six days. Thereafter, the number of survived cotton aphids parasitic on the cucumber leaves was counted, and the control value was calculated by the following equation. Control value(%)={1−(Cb×Tai)/(Cai×Tb)}×100 wherein each character represents the following meaning: Cb: number of insects in non-treated section before treatment Cai: number of insects in non-treated section during observation Tb: number of insects in treated section before treatment Tai: number of insects in treated section during observation

[3] = system: cotton aphids (Aphis gossypii Glover); experiment: Test Example 1: test diluent scattered on cucumber seedling inoculated with cotton aphids; conditions: 120 h, 500 ppm active ingredient, 10 ml scattered on cucumber seedling, counted five days after scattering, read-out: Control value
Description: The formulations were diluted with water so that the concentration of the active ingredient became 500 ppm and thus test diluents were prepared. On the other hand, a cucumber seedling (second true leaf development stage) planted in a plastic cup was inoculated with about 30 cotton aphids (Aphis gossypii Glover) and allowed to stand for one day. To the seedling, any one of the diluents (10 ml) was scattered. Five days after the scattering, the number of survived cotton aphids parasitic on the cucumber leaves was counted, and the control value was calculated by the following equation. Control value(%)={1−(Cb×Tai)/(Cai×Tb)}×100 wherein each character represents the following meaning: Cb: the number of insects in non-treated section before treatment Cai: the number of insects in non-treated section during observation Tb: the number of insects in treated section before treatment Tai: the number of insects in treated section during observation

tobacco whitefly = experiment: Test Example 4: test diluent scattered on tomato seedling with hatched tobacco whitefly larvae; conditions: 168 h; 500 ppm, 10 ml/cup scattered on tomato seedling at larvae stage, counted after seven days at 25° C.; read-out: Control value
Description: The formulations were diluted with water so that the concentration of the active ingredient became 500 ppm and thus test diluents were prepared. On the other hand, by releasing tobacco whitefly imagos to a tomato seedling planted in a plastic cup to allow them to lay eggs for about 24 hours. The tomato seedling was kept in a green house for eight days. At the stage in which larvae hatched from the laid eggs, any of the test diluents was scattered at the rate of 10 ml/cup. The tomato seedling was kept in the greenhouse at 25° C. for seven days. The number of survived larvae on tomato leaves was counted, and the control value was calculated by the following equation. Control value(%)={1−(Cb×Tai)/(Cai×Tb)}×100 wherein each character represents the following meaning: Cb: number of insects in non-treated section before treatment Cai: number of insects in non-treated section during observation Tb: number of insects in treated section before treatment Tai: number of insects in treated section during observation

rice brown planthopper [4] = experiment: Test Example 5: test diluent scattered on rice plant seedling, rice brown planthopper released; conditions: Nilaparvata lugens, 144 h; 500 ppm, 10 ml scattered on rice plant seedling, 30 first-instars released, counted after six days at 25° C.; read-out: Control value
Description: The formulations were diluted with water so that the concentration of the active ingredient became 500 ppm and thus test diluents were prepared. On the other hand, to a rice plant seedling (two weeks after seeding, second leaf development stage) planted in a plastic cup, any one of the diluents (10 ml) was scattered. After the drug solution scattered on the rice plant was dried, 30 first-instars of rice brown planthopper were released on the rice plant, which was kept in the green house at 25° C. for six days. Thereafter, the number of rice brown planthopper parasitic on rice plant was counted and the control value was calculated by the following equation. Control value(%)={1−(Cb×Tai)/(Cai×Tb)}×100 wherein each character represents the following meaning: Cb: number of insects in non-treated section before treatment Cai: number of insects in non-treated section during observation Tb: number of insects in treated section before treatment Tai: number of insects in treated section during observation

cotton aphids [5] = experiment: Test Example 2: plant foot irrigation of cucumber seedling in urethane mat, cotton aphids inoculated one day after treatment; conditions: 168 h; 500 ppm, 5 ml plant foot irrigation, urethane mat; aphids inoculated one day after treatment, counted seven days after; read-out: Control value
Description: as §1, with “urethane mat” for “plastic cup”, “One day after the treatment, the” for “The seedling was kept in a green house of 25° C. for seven days. The”, “stages). Further seven days after,” for “stages) and kept in the green house for further six days. Thereafter,”

| Structure (SMILES) | pest or weed control at 500 ppm (rice brown planthopper [1]) [%] | pest or weed control at 500 ppm (cotton aphids [2]) [%] | pest or weed control at 500 ppm [3] [%] | pest or weed control at 500 ppm (tobacco whitefly) [%] | pest or weed control at 500 ppm (rice brown planthopper [4]) [%] | pest or weed control at 500 ppm (cotton aphids [5]) [%] |
| --- | --- | --- | --- | --- | --- | --- |
| Fc1cnccc1-c1nc2cc(C(F)(F)F)ccc2o1 [active compound 25, 2-(3-fluoropyridin-4-yl)-5-(trifluoromethyl)benzoxazole] | ≥ 90 | ≥ 90 | – | – | – | – |
| C#Cc1cnccc1-c1nc2cc(C(F)(F)F)ccc2o1 [active compound 34, 2-(3-ethynylpyridin-4-yl)-5-(trifluoromethyl)benzoxazole] | – | – | ≥ 90 | ≥ 90 | ≥ 90 | – |
| CC(C)(C)c1ccc2oc(-c3ccncc3C(F)(F)F)nc2c1 [active compound 107, 5-tert-butyl-2-(3-trifluoromethylpyridin-4-yl)benzoxazole] | ≥ 90 | – | – | ≥ 90 | ≥ 90 | ≥ 90 |
| COc1cnccc1-c1nc2cc(C(F)(F)F)cnc2o1 [Active Compound 145, 2-(3-methoxypyridin-4-yl)-6-(trifluoromethyl)oxazolo[5,4-b]pyridine] | – | ≥ 90 | – | – | – | – |
| Cc1cnn(-c2cnccc2-c2nc3cc(C(F)(F)F)ccc3o2)c1 [active compound 61, 2-[3-(4-methylpyrazole-1-yl)pyridin-4-yl]-5-(trifluoromethyl)benzoxazole] | – | – | ≥ 90 | – | ≥ 90 | – |
| FC(F)(F)C(F)(c1ccc2oc(-c3ccncc3)nc2c1)C(F)(F)F [active compound 67, 2-(pyridin-4-yl)-5-(heptafluoroisopropyl)benzoxazole] | – | – | – | – | ≥ 90 | – |
| FC(F)(F)COc1cnccc1-c1nc2cc3c(cc2o1)C(F)(F)OC3(F)F [active compound 89, 5,5,7,7-tetrafluoro-2-[3-(2,2,2-trifluoroethoxy)pyridin-4-yl]-5,7-dihydro-furo[3′,4′:4,5]benzo[1,2-d]oxazole] | – | – | ≥ 90 | ≥ 90 | ≥ 90 | – |
| CCCc1ccc2oc(-c3ccncc3)nc2c1 [active compound 1, 5-propyl-2-(pyridin-4-yl)-benzoxazole] | – | – | – | ≥ 90 | ≥ 90 | – |
| FC(F)(F)c1ccc2oc(-c3ccncc3-c3ccccc3)nc2c1 [active compound 32, 2-(3-phenylpyridin-4-yl)-5-(trifluoromethyl)benzoxazole] | – | – | – | – | ≥ 90 | – |
| FC(F)(F)CSc1cnccc1-c1nc2cc(C(F)(F)F)ccc2o1 [active compound 46, 2-[3-(2,2,2-trifluoroethylthio)pyridin-4-yl]-5-(trifluoromethyl)benzoxazole] | ≥ 90 | – | ≥ 90 | ≥ 90 | ≥ 90 | – |
| CS(=O)(=O)c1cnccc1-c1nc2cc(C(F)(F)F)ccc2o1 [active compound 135, 2-[3-(methanesulfonyl)pyridin-4-yl]-5-(trifluoromethyl)benzoxazole] | – | ≥ 90 | – | – | – | – |
| CCc1cnccc1-c1nc2cc3c(cc2o1)C(F)(F)OC3(F)F [active compound 98, 2-(3-ethylpyridin-4-yl)-5,5,7,7-tetrafluoro-5,7-dihydro-furo[3′,4′:4,5]benzo[1,2-d]oxazole] | ≥ 90 | – | ≥ 90 | ≥ 90 | ≥ 90 | – |
| CC(C)Oc1cnccc1-c1nc2cc3c(cc2o1)C(F)(F)OC3(F)F [active compound 97, 5,5,7,7-tetrafluoro-2-(3-isopropoxypyridin-4-yl)-5,7-dihydro-furo[3′,4′:4,5]benzo[1,2-d]oxazole] | ≥ 90 | – | ≥ 90 | ≥ 90 | ≥ 90 | – |
| CCCCCOc1cnccc1-c1nc2cc(C(F)(F)F)ccc2o1 [active compound 123, 2-(3-pentyloxypyridin-4-yl)-5-(trifluoromethyl)benzoxazole] | – | – | – | ≥ 90 | ≥ 90 | – |
| FC(F)(F)c1cnc2oc(-c3ccncc3C(F)(F)F)nc2c1 [Active Compound 144, 6-trifluoromethyl-2-[3-(trifluoromethyl)pyridin-4-yl]-oxazolo[5,4-b]pyridine] | – | ≥ 90 | – | – | – | – |
| COc1cnccc1-c1nc2cc3c(cc2o1)C(F)(F)OC3(F)F [active compound 88, 5,5,7,7-tetrafluoro-2-(3-methoxypyridin-4-yl)-5,7-dihydro-furo[3′,4′:4,5]benzo[1,2-d]oxazole] | – | – | ≥ 90 | ≥ 90 | ≥ 90 | ≥ 90 |
| FC(F)(F)c1cnc2oc(-c3ccncc3)nc2c1 [active compound 138, 2-pyridin-4-yl-6-(trifluoromethyl)oxazolo[5,4-b]pyridine] | – | – | – | – | ≥ 90 | – |
| CC(C)(C)c1ccc2nc(-c3ccncc3)oc2c1 [active compound 8, 6-tert-butyl-2-(pyridin-4-yl)-benzoxazole] | – | – | – | ≥ 90 | ≥ 90 | – |
| FC(F)(F)c1cnc2oc(-c3ccncc3Cl)nc2c1 [Active Compound 139, 2-(3-chloropyridin-4-yl)-6-(trifluoromethyl)oxazolo[5,4-b]pyridine] | ≥ 90 | – | – | – | ≥ 90 | – |
| Cc1c[n+]([O-])ccc1-c1nc2cc(C(F)(F)F)ccc2o1 [active compound 24, 3-methyl-4-[5-(trifluoromethyl)benzoxazole-2-yl]pyridine N-oxide] | ≥ 90 | ≥ 90 | – | – | – | – |
| [O-][n+]1ccc(-c2nc3cc(C(F)(F)F)ccc3o2)c(Cl)c1 [active compound 19, 3-chloro-4-[5-(trifluoromethyl)benzoxazole-2-yl]pyridine N-oxide] | – | ≥ 90 | – | – | – | ≥ 90 |
| CCOCCOc1cnccc1-c1nc2cc(C(F)(F)F)ccc2o1 [active compound 122, 2-[3-(2-ethoxyethoxy)pyridin-4-yl]-5-(trifluoromethyl)benzoxazole] | – | – | ≥ 90 | ≥ 90 | ≥ 90 | – |
